A short description of data set [1]: Inhibition of SIN1-mediated peroxynitrite oxidation of luminol (L-012 assay). The data set is classed as biochemical. As to conditions: for Peroxynitrite gen (% control, 10 μM): compound at 10 μM, SIN-1 100 μM, L-012, PBS pH 8.5. The protocol:
Luminol-like compounds such as L-012 are chemilumescent probes that are oxidized by the presence of ROS and RNS such as peroxynitrite. In this assay L-012 is oxidized by the addition of 3-morpholino-sydnonimine (SIN-1), a known peroxynitrite generator. The emitted luminescence is directly proportional to the concentration of SIN-1. The compounds were assessed for their ability to neutralize/scavenge/decompose peroxynitrite by blocking the increase of peroxynitrite induced chemilumescence. Concentrations of compound producing 50% inhibition of the luminescence signal (IC50 values) were calculated by testing the compounds at various concentrations of two parallel measurements.
Stock solution (10 mM) of compounds were prepared in 100% DMSO.
The following solutions were added to white polystyrene, non-sterile 96-well plate (Thermo Scientifi NUNC™ 96 MICROWELL™ White Polystyrene Plates #447796): • 10 μL SIN-1 2 mM in 100% DMSO solution (SIN-1 final concentration 100 DMSO final volume—5%); • 190 μL L012+/−test compound in phosphate-buffered solution (PBS, pH=8.5) (L012 final concentration 100 μM).
Luminescence signal was recorded by Hidex Sense multimodal microplate reader (Hidex) at 30° C. for 30 min, with a measurement every 60 sec and an integration time of 1 sec.
IC50 values were calculated using two different methods; first by measuring the slopes of the steepest linear portion of the kinetic profile during the first 5 min (as % from control) and secondly, by measuring the maximal luminiscence at 30 min time point (as % from control). IC50 values of the tested compounds were calculated using GraphPad Prism 5.0 software package.

The subject of data set [2] is nerve injury induced tactile allodynia. Briefly: Rat spinal nerve ligation (SNL) model, tactile allodynia (von Frey). The data set is classed as in vivo. As to conditions: 100 mg/kg i.p. On the procedure: The spinal nerve ligation (SNL) model of neuropathic pain in the rat results in behaviors similar to that observed in patients (Kim & Chung, 1992, Pain 50(3):355-63) and has been widely used to assess novel pharmacological treatments (Sindrup & Jensen, 1999, Pain 83(3):389-400). Compounds of the invention were evaluated for its ability to reverse or prevent development of tactile allodynia in a rat model of neuropathic pain.
The positive control was gabapentin (Toronto Research Chemicals, Canada). The negative control was vehicle (0.5% methyl cellulose; 2-hydroxy-propyl-beta-cyclodextrin). Male Sprague-Dawley Rats (Harlan, 11) were 250-300 g at time of dosing. […]
The effect of compounds of the invention on nerve injury induced tactile allodynia was investigated using von Frey filaments 1-3 weeks after tight ligation of the LS spinal nerve. Tactile thresholds were assessed using a series of calibrated von Frey monofilaments (Stoelting, Wood Dale, Ill.). Assessment of tactile allodynia was measured as the hind paw-withdrawal threshold that produced a 50% likelihood of a withdrawal using the up-down method. Thresholds were evaluated before surgery, and they were reassessed 1-3 weeks after SNL surgery. […] Tactile thresholds were again assessed either 1 and 3 h, 3 and 5 h or once weekly after administration. […]

For data set [3], the system named is latency to fall from rotarod. Briefly: Accelerating rotarod assay of ataxia. In kind it is in vivo, rat. As to conditions: 3 mg/kg p.o., 1 h post-administration. On the procedure: Ataxia is a common clinical problem with CNS-active compounds and can often confound interpretation of efficacy in preclinical pain models. The rotarod assay of ataxia has been widely used to assess the side-effect liability of novel pharmacological treatments (Jones & Roberts, 1968, J. Pharm. Pharmacol. 20:302-04).
The effect of compounds of the invention to impact latency to fall in an accelerating rotarod assay of ataxia in rats was evaluated. The positive control was haloperidol (Sigma, St. Louis), and the negative control was vehicle (which was hydroxypropylmethyl-cellulose and 15% DMA, 65% PEG300, and 20% D5W for haloperidol).
Male Sprague-Dawley Rats (Harlan, Ill.) were 250-300 g at time of dosing. Rotarod was obtained from IITC, CA. To examine the potential effects of compounds of the invention on motor performance, rats were tested on an accelerating rotarod (IITC, Ca). In this assay, rats were placed on the rotarod with the speed set to accelerate from 4 to 40 rpm over 300 sec. The maximum time spent on the rotarod was set at 300 seconds. Rats received two timed training trials (averaged to give the reported baseline) on the first day, then 24 h later rats were administered compound of the invention (30, 100 and 300 mg/kg, p.o.), haloperidol (3 mg/kg, p.o.) or vehicle.

Data set [4] has as its system carrageenan-induced thermal hyperalgesia and edema. Briefly: Intraplantar carrageenan model of acute inflammatory pain (Hargreaves test, paw volume). The data set is classed as in vivo, rat. As to conditions: 30 mg/kg p.o., dosed preemptively, assessed 4 h post-carrageenan. On the procedure:
The intraplantar carrageenan model of acute inflammatory pain in the rat results in behaviors similar to that observed in patients and has been widely used to assess novel pharmacological treatments (Whiteside, et al., 2005, J. Pharmacol. Exp. Ther. 314:1234-1240).
For this assay, paw withdrawal latency to a thermal stimulus was assessed using a radiant heat source (Ugo Basile, Italy) aimed at the plantar surface of the left hind paw (Hargreaves test). A cut-off latency of 40 sec is set to avoid tissue damage. Paw volume was measured by displacement of water and assuming a tissue density equal to that of water. Baseline latencies were taken prior to carrageenan administration and re-assessed 4 h later. Compounds of the invention or vehicle were administered (10 and 30 mg/kg, p.o.) 3 h after carrageenan (curative) and behavior assessed 1 h later. Additionally, compounds of the invention were administered 15 minutes prior to carrageenan (preemptive) and behavior assessed 4 h post carrageenan. Indomethacin (positive control, 30 mg/kg p.o.) was administered prior to carrageenan and behavior assessed 4 h post-carrageenan.
Intraplantar injection of carrageenan was performed under 2.5-4.0% isoflurane/O2 anesthesia, delivered via nose cone. After induction of anesthesia, the injection site was prepared in a sterile manner and 50 μL of a 2% λ-carrageenan was injected. […]

The mark [5] stands for this setting: from maximal luminescence at 30 min time point, read-out: IC50 (μM) (% luminol absorb. @ 30 min).
Where [6] appears, read: from slopes of steepest linear portion of kinetic profile during first 5 min, read-out: IC50 (μM) (% PN gen).

The record followed here is patent US10844054B2, “Compounds for pain treatment, compositions comprising same, and methods of using same” (CERSCI THERAPEUTICS, INC., priority 2018, dated 2020).

Where two headings read alike, the source gives them in different places.

Usually IC50 stands for the concentration that inhibits the measured activity by half. Regarding `Cl.O=C(O)[C@@H]1CSC(Nc2ccncc2O)=N1` [Compound 27a, (R)-2-(3-Hydroxy-pyridin-4-ylamino)-4,5-dihydro-thiazole-4-carboxylic acid hydrochloride], the “Peroxynitrite gen (% control, 10 μM)” value in data set [1] was 61 % control. Also, the IC50 in data set [1] (setting [5]) and in data set [1] (setting [6]) was more than 10 µM throughout.

In the case of `CC1(C)SC(Nc2ncccc2O)=N[C@@H]1C(=O)O.Cl` [Compound 4a, (R)-2-(3-Hydroxy-pyridin-2-ylamino)-5,5-dimethyl-4,5-dihydro-thiazole-4-carboxylic acid hydrochloride], the “Peroxynitrite gen (% control, 10 μM)” value in data set [1] is reported as 0 % control. The half-inhibitory concentration (IC50) worked out at 1.8 µM in data set [1] (setting [5]) and 0.26 µM in data set [1] (setting [6]).

For `Cl.O=C(O)[C@H]1CSC(Nc2ncccc2O)=N1` [Compound 8a, (S)-2-((3-hydroxypyridin-2-yl)amino)-4,5-dihydrothiazole-4-carboxylic acid hydrochloride], the “Peroxynitrite gen (% control, 10 μM)” value in data set [1] is on record as 0 % control. For the same compound, the IC50 turned out to be 2.1 µM in data set [1] (setting [5]) and 0.23 µM in data set [1] (setting [6]).

As for `NCC1(CC(=O)O)CCCCC1` [gabapentin], the “reversal of tactile allodynia” value in data set [2] was “statistically significant reversal of allodynia”.

For `CC1(C)SC(Nc2ccncc2O)=N[C@@H]1C(=O)O.Cl` [Compound 17a, (R)-2-((3-Hydroxypyridin-4-yl)amino)-5,5-dimethyl-4,5-dihydrothiazole-4-carboxylic acid hydrochloride], the “Peroxynitrite gen (% control, 10 μM)” value in data set [1] is on record as 75 % control. The IC50 in data set [1] (setting [5]) and in data set [1] (setting [6]) was more than 10 µM throughout.

In the case of `O=C(CCCN1CCC(O)(c2ccc(Cl)cc2)CC1)c1ccc(F)cc1` [haloperidol], the “motor performance / latency to fall in rotarod” value in data set [3] is on record as “significant motor deficits”.

For the compound `CC1(C)SC(Nc2cnccc2O)=N[C@@H]1C(=O)O.Cl` [Compound 12a, (R)-2-((4-Hydroxypyridin-3-yl)amino)-5,5-dimethyl-4,5-dihydrothiazole-4-carboxylic acid hydrochloride], the “Peroxynitrite gen (% control, 10 μM)” value in data set [1] was found to be 82 % control. Besides, the IC50 in data set [1] (setting [5]) and in data set [1] (setting [6]) was more than 10 µM throughout.

For the compound `CC1(C)SC(Nc2cccnc2O)=N[C@H]1C(=O)O.Cl` [Compound 23a, (S)-2-((2-Hydroxypyridin-3-yl)amino)-5,5-dimethyl-4,5-dihydrothiazole-4-carboxylic acid hydrochloride], in data set [1], the “Peroxynitrite gen (% control, 10 μM)” value worked out at 67 % control. Besides, the 50% inhibitory concentration (IC50) in data set [1] (setting [5]) and in data set [1] (setting [6]) was more than 10 µM each time.

Take `CC1(C)SC(Nc2cccnc2O)=N[C@@H]1C(=O)O.Cl` [Compound 22a, (R)-2-((2-Hydroxypyridin-3-yl)amino)-5,5-dimethyl-4,5-dihydrothiazole-4-carboxylic acid hydrochloride]: the “Peroxynitrite gen (% control, 10 μM)” value in data set [1] is on record as 96 % control. Besides, the half-inhibitory concentration (IC50) in data set [1] (setting [5]) and in data set [1] (setting [6]) was more than 10 µM each time.

In the case of `COc1ccc2c(c1)c(CC(=O)O)c(C)n2C(=O)c1ccc(Cl)cc1` [indomethacin], in data set [4], the “prevention of carrageenan-induced edema (paw volume)” value was “statistically significant prevention” and the “prevention of carrageenan-induced thermal hyperalgesia” value is recorded as “statistically significant prevention”.

In the case of `CC1(C)SC(Nc2ccncc2O)=N[C@H]1C(=O)O.Cl` [Compound 18a, (S)-2-((3-Hydroxypyridin-4-yl)amino)-5,5-dimethyl-4,5-dihydrothiazole-4-carboxylic acid hydrochloride], in data set [1], the “Peroxynitrite gen (% control, 10 μM)” value worked out at 77 % control. The IC50 in data set [1] (setting [5]) and in data set [1] (setting [6]) was more than 10 µM in each case.

On to `Cl.O=C(O)[C@@H]1CSC(Nc2cnccc2O)=N1` [Compound 25a, (R)-2-((4-Hydroxypyridin-3-yl)amino)-4,5-dihydrothiazole-4-carboxylic acid hydrochloride], for which the “Peroxynitrite gen (% control, 10 μM)” value in data set [1] was determined as 111 % control. Further, the half-maximal inhibitory concentration (IC50) in data set [1] (setting [5]) and in data set [1] (setting [6]) was more than 10 µM each time.

For `Cl.O=C(O)[C@@H]1CSC(Nc2ncccc2O)=N1` [Compound 7a, (R)-2-((3-hydroxypyridin-2-yl)amino)-4,5-dihydrothiazole-4-carboxylic acid hydrochloride], the “Peroxynitrite gen (% control, 10 μM)” value in data set [1] is 0 % control. The IC50 in data set [1] (setting [5]) was determined as 1.8 µM; in data set [1] (setting [6]), 0.17 µM.

On to `CC1(C)SC(Nc2ncccc2O)=N[C@H]1C(=O)O.Cl` [Compound 5a, (S)-2-(3-Hydroxy-pyridin-2-ylamino)-5,5-dimethyl-4,5-dihydro-thiazole-4-carboxylic acid hydrochloride], for which the “Peroxynitrite gen (% control, 10 μM)” value in data set [1] was determined as 0 % control. The IC50 in data set [1] (setting [5]) turned out to be 1.6 µM; in data set [1] (setting [6]), 0.17 µM.
